Test results: ChEMBL document CHEMBL1201862, “PubChem BioAssay data set” (2004)
Calls of active or inactive are those of the source.

What was measured:
[1] = target: T1, Sentrin-specific protease 8 (Homo sapiens, UniProt Q96LD8); type: functional
T1 sequence (Q96LD8 whole entry): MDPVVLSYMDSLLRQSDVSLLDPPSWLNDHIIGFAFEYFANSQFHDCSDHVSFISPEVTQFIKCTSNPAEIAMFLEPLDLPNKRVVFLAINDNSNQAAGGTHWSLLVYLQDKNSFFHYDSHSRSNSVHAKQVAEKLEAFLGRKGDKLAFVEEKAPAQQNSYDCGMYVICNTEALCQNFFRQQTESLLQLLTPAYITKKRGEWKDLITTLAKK

[2] = target: T1, Sentrin-specific protease 8; type: functional; remark: listed apart in the source
[3] = target: T2, Caspase-6 (Homo sapiens, UniProt P55212); experiment: human caspase-6 inhibitors, dose response, biochemical, VEID-R110 fluorescence, cherry-pick (AID 720632)
T2 sequence (P55212 whole entry): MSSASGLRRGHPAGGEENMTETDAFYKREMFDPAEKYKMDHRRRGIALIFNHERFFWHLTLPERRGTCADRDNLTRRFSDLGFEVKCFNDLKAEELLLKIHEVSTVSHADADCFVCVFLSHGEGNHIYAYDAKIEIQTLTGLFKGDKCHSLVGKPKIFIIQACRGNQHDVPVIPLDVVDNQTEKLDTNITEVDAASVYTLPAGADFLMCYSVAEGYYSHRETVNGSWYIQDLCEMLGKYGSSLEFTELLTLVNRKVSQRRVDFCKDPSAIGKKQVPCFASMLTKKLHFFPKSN

[4] = target: Caspase-9 (Homo sapiens, UniProt P55211); experiment: caspase-9 enzyme inhibition, dose response, selectivity assay for caspase-6 inhibitor project, biochemical, fluorescence, plate reader, cherry-picked samples (AID 743293)
[5] = target: Caspase-7 (Homo sapiens, UniProt P55210); experiment: human caspase-7 inhibitors, dose response, selectivity assay for caspase-6 inhibitor project, biochemical, DEVD-R110 fluorescence, cherry-pick (AID 743295)
[6] = target: Caspase-8 (Homo sapiens, UniProt Q14790); experiment: caspase-8 inhibition counter-screen, dose response, selectivity assay for caspase-6 inhibitor project, biochemical, Z-IETD-R110 fluorescence, cherry-picked samples (AID 743294)
[7] = target: T3, Caspase-3 (Homo sapiens, UniProt P42574); experiment: caspase-3 enzyme inhibitors, selectivity check, dose response, selectivity assay for caspase-6 allosteric inhibitor project, biochemical, fluorescence, cherry-picked samples (AID 743291)
T3 sequence (P42574 whole entry): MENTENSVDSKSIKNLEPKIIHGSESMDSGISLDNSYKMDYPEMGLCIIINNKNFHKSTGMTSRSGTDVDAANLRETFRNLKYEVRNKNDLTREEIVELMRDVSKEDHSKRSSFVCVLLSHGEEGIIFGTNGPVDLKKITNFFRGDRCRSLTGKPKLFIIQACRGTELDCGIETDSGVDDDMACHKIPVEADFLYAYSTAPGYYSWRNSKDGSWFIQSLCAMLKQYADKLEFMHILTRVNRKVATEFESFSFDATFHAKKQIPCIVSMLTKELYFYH

[8] = target: T4, Oxysterols receptor LXR-beta (Homo sapiens, UniProt P55055); type: functional, cell-based;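 also: agonist activity at LXR measured by a cell-based luminescence readout across a dose range, run as a counterscreen for daf-12 agonists; HEK293 cells with Gal4-LXR fusion and GAL4-driven luciferase reporter; potency for activation of Gal4-LXR reporter so compounds are agonists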
T4 sequence (P55055 whole entry): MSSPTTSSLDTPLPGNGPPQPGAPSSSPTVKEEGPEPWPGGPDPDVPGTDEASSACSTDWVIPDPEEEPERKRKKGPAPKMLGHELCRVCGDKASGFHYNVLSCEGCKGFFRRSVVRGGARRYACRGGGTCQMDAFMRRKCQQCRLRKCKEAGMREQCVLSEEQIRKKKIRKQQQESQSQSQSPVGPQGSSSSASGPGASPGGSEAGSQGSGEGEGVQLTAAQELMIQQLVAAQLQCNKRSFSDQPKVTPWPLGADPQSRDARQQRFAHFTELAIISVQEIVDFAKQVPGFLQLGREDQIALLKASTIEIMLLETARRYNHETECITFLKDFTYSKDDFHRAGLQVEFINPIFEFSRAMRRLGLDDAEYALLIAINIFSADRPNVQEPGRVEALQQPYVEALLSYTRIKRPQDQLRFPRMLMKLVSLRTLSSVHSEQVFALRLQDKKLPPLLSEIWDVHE

[9] = target: Kallikrein-7 (Homo sapiens, UniProt P49862); experiment: Fluorescence Intensity-based biochemical primary high throughput dose response assay to identify activators of kallikrein-7 (K7) zymogen.
[10] = Luminescence Cell-Based Dose Retest to Confirm Inhibitors of Cancer Stem Cells. [Related pubchem assays (depositor defined):AID2717, AID2721]; type: functional; conditions: Homo sapiens
[11] = target: T5, Disintegrin and metalloproteinase domain-containing protein 17 (Homo sapiens, UniProt P78536); experiment: exosite inhibitors of ADAM17, dose response, biochemical (AID 743260)
[12] = ADAM10 protease inhibitors, dose response, selectivity assay for ADAM17 exosite inhibitor project, biochemical, FRET peptide substrate, recombinant human ADAM10 (AID 743259);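 also: ADAM10 enzyme cleaving a FRET peptide substrate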
[13] = HepG2 cell cytotoxicity, dose response, cytotoxicity control, ATP luminescence, cherry-pick, set 6 (AID 1053125); type: functional, cell-based
[14] = cells; conditions: A549
[15] = cells
[16] = cells; conditions: HEK293
[17] = target: Estrogen receptor beta (Homo sapiens, UniProt Q92731);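 also: recombinant ER-beta bound to coactivator SRC1 peptide in presence of estradiol agonist; inhibitors block coactivator peptide binding and lower the FRET signal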
[18] = inhibitors of HIV Env-driven cell fusion, dose response, cherry-pick (AID 652057); type: functional, cell-based
[19] = target: Galanin receptor type 3 (Homo sapiens, UniProt O60755); experiment: Fluorescence-based cell-based primary high throughput dose response assay to identify antagonists of the Galanin Receptor 3 (GalR3).; type: functional
[20] = cells; type: functional, cell-based; conditions: HEK-CNG
[21] = ZM109 Env clade C HIV-1 fusion inhibitors, dose response, HeLa effector, CEM target cells, luciferase, cherry-pick (AID 652058); type: functional, cell-based
[22] = inhibitors of clade B AD8 Env fusion, dose response, cell-based, cherry-pick (AID 652062); type: functional;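 also: luciferase signal from cell-cell fusion driven by HIV-1 clade B AD8 Env; potency is for inhibitors of fusion seen as a drop in luminescence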
[23] = HIV Env cell-cell fusion inhibitors, dose response, HIV entry, plate reader, dry powder (AID 687023); type: functional, cell-based
[24] = CEM21 cell cytotoxicity, dose response, cytotoxicity control, plate reader, dry powder (AID 687026); type: functional, cell-based
[25] = ADAM10 inhibitors, peptide cleavage, dose response, biochemical, QFRET (AID 743254);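 also: ADAM10 enzyme with the DM2 quenched FRET peptide as substrate; EDANS fluorescence gain as the protease cuts the substrate; inhibitor potency against ADAM10 proteolytic activity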
[26] = target: T5, Disintegrin and metalloproteinase domain-containing protein 17; experiment: ADAM17 protease inhibitors, dose response, counter-screen for ADAM10 exosite inhibitor project, biochemical, quenched FRET substrate (AID 743253)
[27] = target: Paired box protein Pax-8 (Homo sapiens, UniProt Q06710); experiment: inhibitors of PAX8-driven TPO luciferase reporter, dose response, RMG-I cells, cherry-pick (AID 687027); type: functional, cell-based;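 also: luciferase reporter driven by Pax8 target thyroperoxidase promoter measured by SteadyGlo luminescence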
[28] = A549 cell cytotoxicity, dose response, cytotoxicity control, 24 h, CellTiter-Glo luminescence, cherry-picks (AID 1053115); type: functional, cell-based; conditions: A549, 24 h
[29] = system: HEK293; experiment: HEK293T cell cytotoxicity, dose response, cytotoxicity control, ATP luminescence, cherry-pick samples (AID 687005); type: functional, cell-based; conditions: Homo sapiens;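 also: cells exposed to compound for 48 hours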
[30] = HEK293 Cytotoxicity Assay Measured in Cell-Based System Using Plate Reader - 7071-01_Inhibitor_Dose_CherryPick_Activity_Set2.; type: functional
[31] = inhibitors of non-replicating M. tuberculosis, dose response, luciferase, dry powder (AID 651619); type: functional; conditions: Mycobacterium tuberculosis
[32] = inhibitors of non-replicating M. tuberculosis, dose response, luciferase, dry powder (AID 651620); type: functional; conditions: Mycobacterium tuberculosis
[33] = MITF Orthogonal Assay: SK-MEL-5 CTG Assay Measured in Cell-Based System Using Plate Reader - 2084-02_Inhibitor_Dose_DryPowder_Activity_Set7.; type: functional
[34] = MITF: Counter assay: A375 proliferation Measured in Cell-Based System Using Plate Reader - 2084-03_Inhibitor_Dose_DryPowder_Activity_Set8.; type: functional; conditions: A-375
[35] = TRPM1 promoter luciferase reporter signal decrease, dose response, MITF inhibitor project, cell-based, SK-MEL-5, dry powder, set 8 (AID 624430); type: functional
[36] = BHK-21 cell cytotoxicity, cytotoxicity control for flavivirus guanylyltransferase probe project, secondary screen (AID 624078); type: functional
[37] = THP-1 cell cytotoxicity, dose response, cytotoxicity control for non-replicating M. tuberculosis project (AID 489025); type: functional
[38] = HepG2 cell cytotoxicity, dose response, cytotoxicity control for non-replicating M. tuberculosis project (AID 489018); type: functional; conditions: Mycobacterium tuberculosis
[39] = Vero E6 cell cytotoxicity, dose response, cytotoxicity control for non-replicating M. tuberculosis project, secondary assay (AID 492998); type: functional, VeroE6; conditions: Vero C1008
[40] = cells; type: functional
[41] = target: fMet-Leu-Phe receptor (Homo sapiens, UniProt P21462); experiment: FPR ligands, dose response (AID 519); type: functional
Chain of fMet-Leu-Phe receptor (P21462 whole entry): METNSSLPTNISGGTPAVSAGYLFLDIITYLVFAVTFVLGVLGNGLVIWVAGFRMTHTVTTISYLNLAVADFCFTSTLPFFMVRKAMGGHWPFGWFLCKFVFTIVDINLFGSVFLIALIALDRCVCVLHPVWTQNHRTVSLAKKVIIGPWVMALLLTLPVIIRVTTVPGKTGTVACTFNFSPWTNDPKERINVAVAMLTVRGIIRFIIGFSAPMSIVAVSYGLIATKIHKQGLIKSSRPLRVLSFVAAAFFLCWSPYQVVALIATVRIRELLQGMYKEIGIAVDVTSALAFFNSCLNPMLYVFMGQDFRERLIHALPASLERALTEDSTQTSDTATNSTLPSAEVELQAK

T5 sequence (P78536 whole entry, the tested form may be a part): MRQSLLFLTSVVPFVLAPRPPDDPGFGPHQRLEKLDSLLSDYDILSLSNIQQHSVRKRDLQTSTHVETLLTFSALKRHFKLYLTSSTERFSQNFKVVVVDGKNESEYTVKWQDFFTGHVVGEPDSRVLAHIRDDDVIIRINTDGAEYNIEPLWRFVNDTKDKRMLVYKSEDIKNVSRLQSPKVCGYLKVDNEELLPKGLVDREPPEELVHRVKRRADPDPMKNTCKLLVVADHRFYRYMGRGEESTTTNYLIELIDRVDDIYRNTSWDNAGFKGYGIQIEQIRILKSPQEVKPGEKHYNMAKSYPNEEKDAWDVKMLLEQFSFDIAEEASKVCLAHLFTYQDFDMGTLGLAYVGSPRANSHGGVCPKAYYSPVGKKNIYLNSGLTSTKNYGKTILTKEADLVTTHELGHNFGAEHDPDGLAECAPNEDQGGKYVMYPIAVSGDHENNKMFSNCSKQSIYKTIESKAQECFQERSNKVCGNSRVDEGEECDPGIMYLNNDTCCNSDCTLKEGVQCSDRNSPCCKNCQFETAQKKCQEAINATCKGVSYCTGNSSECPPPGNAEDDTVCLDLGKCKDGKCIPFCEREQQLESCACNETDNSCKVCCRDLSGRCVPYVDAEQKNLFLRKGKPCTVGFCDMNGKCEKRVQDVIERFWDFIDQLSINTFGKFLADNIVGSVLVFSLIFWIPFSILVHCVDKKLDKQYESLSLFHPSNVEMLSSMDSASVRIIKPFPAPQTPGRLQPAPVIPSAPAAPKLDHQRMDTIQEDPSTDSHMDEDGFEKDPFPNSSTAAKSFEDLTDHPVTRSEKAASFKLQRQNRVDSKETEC
Chain of Caspase-7 (P55210 24-198 limits assumed): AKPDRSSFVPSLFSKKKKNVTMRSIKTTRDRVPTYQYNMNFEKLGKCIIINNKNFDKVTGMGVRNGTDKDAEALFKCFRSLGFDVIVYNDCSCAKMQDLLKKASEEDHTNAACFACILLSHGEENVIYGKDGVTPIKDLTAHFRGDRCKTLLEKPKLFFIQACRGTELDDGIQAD
Chain of Caspase-7 (P55210 207-303 limits assumed): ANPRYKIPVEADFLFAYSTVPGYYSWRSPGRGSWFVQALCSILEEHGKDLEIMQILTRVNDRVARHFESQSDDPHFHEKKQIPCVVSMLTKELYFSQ
Chain of Estrogen receptor beta (Q92731 whole entry, the tested form may be a part): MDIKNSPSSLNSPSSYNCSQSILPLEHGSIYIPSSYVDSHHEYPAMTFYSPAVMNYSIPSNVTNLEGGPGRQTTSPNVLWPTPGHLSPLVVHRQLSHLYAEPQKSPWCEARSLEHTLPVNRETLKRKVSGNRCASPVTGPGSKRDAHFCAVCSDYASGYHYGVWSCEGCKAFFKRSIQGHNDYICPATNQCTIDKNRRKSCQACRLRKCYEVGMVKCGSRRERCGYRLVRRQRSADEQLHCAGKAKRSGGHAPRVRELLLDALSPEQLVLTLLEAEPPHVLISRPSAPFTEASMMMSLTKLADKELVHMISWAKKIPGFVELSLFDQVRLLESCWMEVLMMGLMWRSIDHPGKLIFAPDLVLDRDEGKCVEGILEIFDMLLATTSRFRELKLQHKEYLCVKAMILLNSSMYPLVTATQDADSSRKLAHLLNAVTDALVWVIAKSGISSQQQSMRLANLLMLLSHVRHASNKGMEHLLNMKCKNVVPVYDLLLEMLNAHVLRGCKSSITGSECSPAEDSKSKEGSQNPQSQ
Chain of Galanin receptor type 3 (O60755 whole entry): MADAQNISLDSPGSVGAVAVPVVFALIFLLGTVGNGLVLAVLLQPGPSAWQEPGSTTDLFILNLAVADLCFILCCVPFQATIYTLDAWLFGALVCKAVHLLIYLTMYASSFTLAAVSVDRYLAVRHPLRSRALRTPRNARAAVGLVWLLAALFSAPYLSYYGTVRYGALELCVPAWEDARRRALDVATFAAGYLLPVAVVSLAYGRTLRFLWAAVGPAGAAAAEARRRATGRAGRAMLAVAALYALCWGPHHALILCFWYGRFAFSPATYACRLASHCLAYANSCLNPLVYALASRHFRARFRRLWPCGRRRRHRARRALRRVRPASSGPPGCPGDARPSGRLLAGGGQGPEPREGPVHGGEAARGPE
Chain of Caspase-9 (P55211 1-315 limits assumed): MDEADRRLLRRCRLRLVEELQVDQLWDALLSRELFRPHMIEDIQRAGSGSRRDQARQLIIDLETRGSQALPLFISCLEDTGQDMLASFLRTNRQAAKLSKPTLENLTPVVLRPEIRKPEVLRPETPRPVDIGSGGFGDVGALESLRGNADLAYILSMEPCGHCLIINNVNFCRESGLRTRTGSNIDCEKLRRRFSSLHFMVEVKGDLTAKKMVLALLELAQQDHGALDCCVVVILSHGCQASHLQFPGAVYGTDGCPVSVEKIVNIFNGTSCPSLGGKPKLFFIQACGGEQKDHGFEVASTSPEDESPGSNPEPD
Chain of Caspase-9 (P55211 331-416 limits assumed): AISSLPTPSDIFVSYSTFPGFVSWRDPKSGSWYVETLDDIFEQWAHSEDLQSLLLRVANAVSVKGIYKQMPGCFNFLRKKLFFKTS
Chain of Caspase-8 (Q14790 217-374 limits assumed): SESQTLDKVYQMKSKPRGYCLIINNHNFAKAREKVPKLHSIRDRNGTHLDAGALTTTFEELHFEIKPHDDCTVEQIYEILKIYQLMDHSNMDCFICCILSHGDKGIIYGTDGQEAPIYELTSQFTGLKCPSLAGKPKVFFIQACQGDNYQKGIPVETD
Chain of Caspase-8 (Q14790 385-479 limits assumed): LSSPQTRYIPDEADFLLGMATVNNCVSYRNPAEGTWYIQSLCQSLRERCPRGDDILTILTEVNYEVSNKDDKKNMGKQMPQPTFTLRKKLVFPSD
Chain of Paired box protein Pax-8 (Q06710 whole entry): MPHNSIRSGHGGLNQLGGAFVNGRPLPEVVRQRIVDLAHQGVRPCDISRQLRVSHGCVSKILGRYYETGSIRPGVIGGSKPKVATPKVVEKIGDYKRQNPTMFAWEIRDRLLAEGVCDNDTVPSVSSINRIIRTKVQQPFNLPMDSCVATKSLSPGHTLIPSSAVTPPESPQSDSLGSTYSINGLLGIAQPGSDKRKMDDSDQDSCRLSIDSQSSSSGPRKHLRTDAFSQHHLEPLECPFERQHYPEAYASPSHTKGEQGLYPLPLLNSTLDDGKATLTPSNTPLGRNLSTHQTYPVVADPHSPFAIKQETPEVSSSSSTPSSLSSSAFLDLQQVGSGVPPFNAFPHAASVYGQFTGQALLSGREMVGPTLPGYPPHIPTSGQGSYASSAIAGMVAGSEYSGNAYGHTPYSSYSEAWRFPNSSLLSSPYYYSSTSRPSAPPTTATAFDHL
Chain of Kallikrein-7 (P49862 whole entry): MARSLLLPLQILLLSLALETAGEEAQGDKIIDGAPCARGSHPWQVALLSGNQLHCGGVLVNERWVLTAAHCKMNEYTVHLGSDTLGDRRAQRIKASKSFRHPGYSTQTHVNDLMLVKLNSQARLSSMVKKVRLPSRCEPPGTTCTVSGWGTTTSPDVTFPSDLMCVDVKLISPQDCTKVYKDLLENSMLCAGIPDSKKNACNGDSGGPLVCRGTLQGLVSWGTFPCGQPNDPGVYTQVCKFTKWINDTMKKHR

SMILES: O=C1Cc2ccccc2C(=O)N1
- IC50 [1]: 0.702 µM (active)
- IC50 [2]: 0.0408 µM (active)
- AC50 [3]: 1.22 µM (active)
- AC50 [4]: 1.34 µM (active)
- AC50 [5]: 1.32 µM (active)
- AC50 [6]: 1.09 µM (active)
- AC50 [7]: 0.74 µM (active)

SMILES: Cc1cc(NC(=O)c2nn3cccnc3c2Cl)no1
- EC50 [8]: > 67.5 µM (inactive)

SMILES: COc1ccc(OC)c(/C=C/C(=O)NCCc2nc3ccccc3[nH]2)c1
- EC50 [9]: > 69.5 µM (inactive)

SMILES: Nc1cc(Cl)ccc1Oc1ccc2ccccc2c1
- AC50 [10]: 5.81 µM (active)
- IC50 [11]: > 69.5 µM (inactive)
- IC50 [12]: 29.6 µM (inactive)

SMILES: CN1CCc2c(sc(NC(=O)c3cc(Cl)sc3Cl)c2C(N)=O)C1
- AC50 [13]: > 52 µM (inactive)
- AC50 [14]: > 52 µM (inactive)
- AC50 [15]: 19.9 µM (active)
- AC50 [16]: 33.7 µM (active)

SMILES: Cc1oc(-c2ccc(Cl)cc2)nc1CN1CCCC(C(=O)NCc2cccnc2)C1 (stereo unspecified)
- IC50 [17]: > 50 µM (not active)
- AC50 [18]: 4.1 µM (active)
- IC50 [19]: 2 µM (active)
- EC50 [20]: > 29.9 µM (inactive)
- AC50 [21]: < 0.26 µM (active)
- AC50 [22]: 4.75 µM (active)
- AC50 [23]: 3.91 µM (active)
- AC50 [24]: > 70 µM (inactive)

SMILES: Cc1cccc(C)c1-c1ccc(CN2C(CC(C)C)C(=O)N(Cc3cn(CCO)nn3)CCS2(=O)=O)cc1 (stereo unspecified)
- IC50 [25]: 12.3 µM (inactive)
- IC50 [26]: > 69.5 µM (inactive)

SMILES: Cc1ccc(S(=O)(=O)Nc2cccc3c2O[C@@H](CN(C)C(=O)Nc2ccc(C(F)(F)F)cc2)[C@@H](C)CN([C@H](C)CO)C3=O)cc1
- AC50 [27]: 12.6 µM (active)
- AC50 [28]: 42.6 µM (active)

SMILES: Cc1ccc(S(=O)(=O)Nc2ccc3c(c2)C(=O)N([C@@H](C)CO)C[C@@H](C)[C@@H](CN(C)S(=O)(=O)c2ccc(Cl)cc2)OCCCC[C@H](C)O3)cc1
- AC50 [29]: 24.4 µM (active)
- AC50 [30]: 24.4 µM (active)

SMILES: c1ccc(CSc2nnc(-c3cccnc3)o2)nc1
- IC90 [31]: 16 µM (active)
- IC90 [32]: 16 µM (active)

SMILES: CCN1CCN(C2=C(Nc3ccc(F)cc3)C(=O)c3ccccc3C2=O)CC1
- AC50 [33]: 11.9 µM (active)
- AC50 [34]: > 70 µM (inactive)
- AC50 [35]: 3.49 µM (active)

SMILES: O=[N+]([O-])c1cccc(S(=O)(=O)Nc2cc(SCc3ccccc3)c(O)c3ccccc23)c1
- CC50 [36]: 14.9 µM (active)

SMILES: Cc1nn2c(=O)c3c([nH]c2c1-c1ccc(Cl)cc1)CCC3
- CC50 [37]: 11.2 µM (active)
- CC50 [38]: 14.9 µM (active)
- CC50 [39]: 14.1 µM (active)
- IC50 [40]: 10.3 µM (active)
- Ki [41]: 14.1 µM (active)
